The target of this assay is T1, Human M4 (Homo sapiens, UniProt P08173).
T1 construct: expressed in transfected cells; host or cells: CHO-K1 (ATCC), stably expressing hM4 and Gqi5
T1 sequence (P08173 1-479): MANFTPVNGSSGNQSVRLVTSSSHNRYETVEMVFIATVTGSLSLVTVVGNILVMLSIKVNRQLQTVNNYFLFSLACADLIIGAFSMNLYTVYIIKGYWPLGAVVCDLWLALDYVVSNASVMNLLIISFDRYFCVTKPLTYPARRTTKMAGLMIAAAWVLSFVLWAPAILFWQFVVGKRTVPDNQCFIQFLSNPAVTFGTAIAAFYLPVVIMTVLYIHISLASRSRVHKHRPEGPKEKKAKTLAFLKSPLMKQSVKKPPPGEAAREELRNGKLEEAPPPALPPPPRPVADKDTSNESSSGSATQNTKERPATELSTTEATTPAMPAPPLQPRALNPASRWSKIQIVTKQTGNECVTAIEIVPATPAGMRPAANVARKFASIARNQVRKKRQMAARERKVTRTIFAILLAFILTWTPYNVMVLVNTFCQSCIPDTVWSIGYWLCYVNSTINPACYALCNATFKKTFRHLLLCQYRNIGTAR
The assay can be described thus: mAChR M4 cell-based functional assay (calcium flux, potentiation of EC20 acetylcholine response) in hM4-Gqi5 CHO-K1 cells. To be noted: for Emax at 30 µM: % ACh maximum at 30 μM, human M4 CHO-K1 cells; for pEC50: CHO-K1 cells transfected with human M4 and Gqi5, positive allosteric modulator activity, EC20 acetylcholine. How it is done: Human M4 cDNA, along with the chimeric G protein Gqi5, were transfected into Chinese hamster ovary (CHO-K1) cells purchased from the American Type Culture Collection using commercially available Lipofectamine 2000 transfection reagent (Dalby, B. et al., Methods (2004) 33(2), 95-103). hM4-Gqi5 cells were grown in Ham's F-12 medium containing 10% heat-inactivated fetal bovine serum (FBS), 20 mM HEPES, 50 μg/mL G418 sulfate (CAS #108321-42-2), and 500 μg/mL Hygromycin B. rM4-Gqi5 cells were grown in DMEM containing 10% heat-inactivated FBS, 20 mM HEPES, 400 μg/mL G418 sulfate, and 500 μg/mL Hygromycin B.
For high throughput measurement of agonist-evoked increases in intracellular calcium, CHO-K1 cells stably expressing muscarinic receptors were plated in growth medium lacking G418 sulfate and hygromycin at 15,000 cells/20 μL/well in Greiner 384-well black-walled, tissue culture (TC)-treated, clear-bottom plates (VWR). Cells were incubated overnight at 37° C. and 5% CO2. The next day, cells were washed using an ELX 405 (BioTek) with assay buffer; the final volume was then aspirated to 20 μL. Next, 20 μL of a 2.3 μM stock of Fluo-4/acetoxymethyl ester (Invitrogen, Carlsbad, CA), prepared as a 2.3 mM stock in DMSO and mixed in a 1:1 ratio with 10% (w/v) Pluronic F-127 and diluted in assay buffer, was added to the wells and the cell plates were incubated for 50 minutes at 37° C. and 5% CO2. Dye was removed by washing with the ELX 405 and the final volume was aspirated to 20 μL. Compound master plates were formatted in an 11 point concentration-response curve (CRC) format (1:3 dilutions) in 100% DMSO with a starting concentration of 10 mM using a BRAVO liquid handler (Agilent). Test compound CRCs were then transferred to daughter plates (240 nL) using the Echo acoustic plate reformatter (Labcyte, Sunnyvale, CA) and then diluted into assay buffer (40 μL) to a 2× stock using a Thermo Fisher Combi (Thermo Fisher Scientific, Waltham, MA).
Calcium flux was measured using the Functional Drug Screening System (FDSS) 6000 or 7000 (Hamamatsu Corporation, Tokyo, Japan) as an increase in the fluorescent static ratio. Compounds were applied to cells (20 μL, 2×) using the automated system of the FDSS at 2-4 seconds into the protocol and the data were collected at 1 Hz. […] Agonist activity was analyzed as a concentration-dependent increase in calcium mobilization upon compound addition. Positive allosteric modulator activity was analyzed as a concentration-dependent increase in the EC20 acetylcholine response. With the acetylcholine EC20 set as baseline, the test compound EC50 is determined as the concentration that produces an increase above baseline of 50% of the maximum increase in acetylcholine response elicted by the test compound. Antagonist activity was analyzed as a concentration-dependent decrease in the EC80 acetylcholine response. Concentration-response curves were generated using a four-parameter logistical equation in XLFit curve fitting software (IDBS, Bridgewater, NJ) for Excel (Microsoft, Redmond, WA) or Prism (GraphPad Software, Inc., San Diego, CA).
Compounds were synthesized as described above. Activity (EC50 and Emax) was determined in the mAChR M4 cell-based functional assay as described above and the data are shown in Table 5. The compound numbers correspond to the compound numbers used in Examples 1-13 and Tables 1, 2, and 3.
(In general: Calcium assays in cells follow changes in intracellular calcium, usually with a dye or a luminescent sensor.)

SMILES strings stand for the structures. pEC50: −log10 of the molar value.

With `Cc1noc2ncnc(N3CCc4ncc(N5CCCn6nccc65)cc4C3)c12` [Compound 45, 4-[3-(6,7-dihydro-5H-pyrazolo[1,5-a]pyrimidin-4-yl)-7,8-dihydro-5H-1,6-naphthyridin-6-yl]-3-methyl-isoxazolo[5,4-d]pyrimidine], the maximal response (Emax) at 30 µM is 93% and the pEC50 was 7.05.

In the case of `Cc1noc2ncnc(N3CCc4ncc(-c5cnn(C6CC6)c5)cc4C3)c12` [Compound 46, 4-[3-(1-cyclopropylpyrazol-4-yl)-7,8-dihydro-5H-1,6-naphthyridin-6-yl]-3-methyl-isoxazolo[5,4-d]pyrimidine], the Emax at 30 µM was 75% and the pEC50 was 6.43.

Regarding `Cc1coc2ncnc(N3CCc4ncc(N5CCOc6ncccc65)cc4C3)c12` [Compound 47, 1-[6-(5-methylfuro[2,3-d]pyrimidin-4-yl)-7,8-dihydro-5H-1,6-naphthyridin-3-yl]-2,3-dihydropyrido[2,3-b][1,4]oxazine], the Emax at 30 µM was found to be 125% and the pEC50 is 7.30.

With `Cc1ccc(-c2cnc3c(c2)CN(c2ncnc4occ(C)c24)CC3)cn1` [Compound 48, 5-methyl-4-[3-(6-methyl-3-pyridyl)-7,8-dihydro-5H-1,6-naphthyridin-6-yl]furo[2,3-d]pyrimidine], the Emax at 30 µM was 102% and the pEC50 was 7.05.

In the case of `Cc1ncc(-c2cnc3c(c2)CN(c2ncnc4occ(C)c24)CC3)s1` [Compound 49, 5-methyl-4-[3-(2-methylthiazol-5-yl)-7,8-dihydro-5H-1,6-naphthyridin-6-yl]furo[2,3-d]pyrimidine], the Emax at 30 µM was 68% and the pEC50 was 6.89.

As to `Cc1noc2ncnc(N3CCc4ncc(N5CCOc6ncccc65)cc4C3)c12` [Compound 50, 1-[6-(3-methylisoxazolo[5,4-d]pyrimidin-4-yl)-7,8-dihydro-5H-1,6-naphthyridin-3-yl]-2,3-dihydropyrido[2,3-b][1,4]oxazine], the Emax at 30 µM worked out at 100% and the pEC50 was 6.62.

As for `Cc1ccc(-c2cnc3c(c2)CN(c2ncnc4onc(C)c24)CC3)cn1` [Compound 51, 3-methyl-4-[3-(6-methyl-3-pyridyl)-7,8-dihydro-5H-1,6-naphthyridin-6-yl]isoxazolo[5,4-d]pyrimidine], the Emax at 30 µM was 89% and the pEC50 is 6.29.

For the compound `Cc1ncc(-c2cnc3c(c2)CN(c2ncnc4onc(C)c24)CC3)s1` [Compound 52, 3-methyl-4-[3-(2-methylthiazol-5-yl)-7,8-dihydro-5H-1,6-naphthyridin-6-yl]isoxazolo[5,4-d]pyrimidine], the Emax at 30 µM amounted to 92% and the pEC50 is 6.26.

Take `Cc1coc2ncnc(N3CCc4ncc(Cc5ccccc5F)cc4C3)c12` [Compound 53, 4-[3-[(2-fluorophenyl)methyl]-7,8-dihydro-5H-1,6-naphthyridin-6-yl]-5-methyl-furo[2,3-d]pyrimidine]: the Emax at 30 µM was found to be 81% and the pEC50 was 6.55.

As for `Cc1coc2ncnc(N3CCc4ncc(Cc5cccc(F)c5)cc4C3)c12` [Compound 54, 4-[3-[(3-fluorophenyl)methyl]-7,8-dihydro-5H-1,6-naphthyridin-6-yl]-5-methyl-furo[2,3-d]pyrimidine], the Emax at 30 µM was 78% and the pEC50 was 6.30.

For `Cc1coc2ncnc(N3CCc4ncc(Nc5ccnn5C)cc4C3)c12` [Compound 55, 6-(5-methylfuro[2,3-d]pyrimidin-4-yl)-N-(2-methylpyrazol-3-yl)-7,8-dihydro-5H-1,6-naphthyridin-3-amine], the Emax at 30 µM was determined as 94% and the pEC50 was 7.22.

As for `Cc1coc2ncnc(N3CCc4ncc(-c5ccnn5C)cc4C3)c12` [Compound 56, 5-methyl-4-[3-(2-methylpyrazol-3-yl)-7,8-dihydro-5H-1,6-naphthyridin-6-yl]furo[2,3-d]pyrimidine], the Emax at 30 µM was 74% and the pEC50 is 7.10.

`FC(F)(F)c1cnc2c(c1)CN(c1nc(Cl)nc3c1CCC3)CC2` [Compound 57, 6-(2-chloro-6,7-dihydro-5H-cyclopenta[d]pyrimidin-4-yl)-3-(trifluoromethyl)-7,8-dihydro-5H-1,6-naphthyridine]: the Emax at 30 µM was determined as 69% and the pEC50 is 7.00.

As to `FC(F)(F)c1cnc2c(c1)CN(c1nc(C3CC3)nc3c1CCC3)CC2` [Compound 58, 6-(2-cyclopropyl-6,7-dihydro-5H-cyclopenta[d]pyrimidin-4-yl)-3-(trifluoromethyl)-7,8-dihydro-5H-1,6-naphthyridine], the Emax at 30 µM worked out at 88% and the pEC50 was 5.83.

`Cc1nc2c(c(N3CCc4ncc(C(F)(F)F)cc4C3)n1)CCC2` [Compound 59, 6-(2-methyl-6,7-dihydro-5H-cyclopenta[d]pyrimidin-4-yl)-3-(trifluoromethyl)-7,8-dihydro-5H-1,6-naphthyridine]: the Emax at 30 µM is 87% and the pEC50 is 5.99.

In the case of `Cn1ncc2ncnc(N3CCc4ncc(C(F)(F)F)cc4C3)c21` [Compound 60, 6-(1-methylpyrazolo[4,3-d]pyrimidin-7-yl)-3-(trifluoromethyl)-7,8-dihydro-5H-1,6-naphthyridine], the Emax at 30 µM stood at 31% and the pEC50 was 5.22.

For the compound `Cn1ccc2c(N3CCc4ncc(C(F)(F)F)cc4C3)ncnc21` [Compound 61, 6-(7-methylpyrrolo[2,3-d]pyrimidin-4-yl)-3-(trifluoromethyl)-7,8-dihydro-5H-1,6-naphthyridine], the Emax at 30 µM stood at 80% and the pEC50 was 6.08.

Regarding `FC(F)(F)c1cnc2c(c1)CN(c1nc(Cl)nc3c1COC3)CC2` [Compound 62, 2-chloro-4-[3-(trifluoromethyl)-7,8-dihydro-5H-1,6-naphthyridin-6-yl]-5,7-dihydrofuro[3,4-d]pyrimidine], the Emax at 30 µM came to 58% and the pEC50 is 5.48.

In the case of `Clc1nc2c(c(N3CCc4ncc(N5CCOc6ncccc65)cc4C3)n1)COC2` [Compound 63, 1-[6-(2-chloro-5,7-dihydrofuro[3,4-d]pyrimidin-4-yl)-7,8-dihydro-5H-1,6-naphthyridin-3-yl]-2,3-dihydropyrido[2,3-b][1,4]oxazine], the Emax at 30 µM amounted to 56% and the pEC50 is 6.43.

Take `Clc1nc2c(c(N3CCc4ncc(N5CCCn6nccc65)cc4C3)n1)COC2` [Compound 64, 2-chloro-4-(3-(6,7-dihydropyrazolo[1,5-a]pyrimidin-4(5H)-yl)-7,8-dihydro-1,6-naphthyridin-6(5H)-yl)-5,7-dihydrofuro[3,4-d]pyrimidine]: the Emax at 30 µM was found to be 62% and the pEC50 was 6.52.

On to `C[C@@H]1CN(c2cnc3c(c2)CN(c2nc(Cl)nc4c2COC4)CC3)CCO1` [Compound 65, (R)-2-chloro-4-(3-(2-methylmorpholino)-7,8-dihydro-1,6-naphthyridin-6(5H)-yl)-5,7-dihydrofuro[3,4-d]pyrimidine], for which the Emax at 30 µM came out at 35% and the pEC50 was 5.49.

One may read the Emax as the greatest response seen or fitted, relative to the assay's reference. A word on the pEC50: it is the EC50 on a negative log10 scale, so that one unit is a factor of ten.

The record behind these values is patent US20250017935A1, “7,8-DIHYDRO-5H-1,6-NAPHTHYRIDINE DERIVATIVES AS POSITIVE ALLOSTERIC MODULATORS OF THE MUSCARINIC ACETYLCHOLINE RECEPTOR M4 FOR TREATING NEUROLOGICAL AND PSYCHIATRIC DISORDERS” (Vanderbilt University, priority 2021, published 2025).
